In ChEMBL document CHEMBL3244027, “Syntheses, analgetic activity, and physical dependence capacity of 5-phenyl-6,7-benzomorphan derivatives” (J Med Chem, 1979):
Active and inactive are the calls of the source. No cut-off for these calls is given here.

Key:
Mus musculus [1] = test: Analgetic activity in sc dosed CF1S mouse assessed as writhing by phenylquinone writhing test; format: functional
Mus musculus [2] = test: Analgetic activity in po dosed CF1S mouse assessed as writhing by phenylquinone writhing test; format: functional; conditions: Mus musculus, CF1S, po; read-out: ED50
Mus musculus [3] = test: Analgetic activity against CF-1 mouse assessed as increase in reaction time at 320 mg/kg, po by heat stimulus induced tail flick response assay; format: functional, organism-based; design: dose 320 mg/kg
[4] = Mus musculus, CF1S, sc, read-out: ED50

Row | SMILES | ED50 (Mus musculus [1]; [4]) | also measured
1 | Cl.Oc1ccc2c(c1)C1(c3ccccc3)CCN(CCc3ccccc3)C(C2)C1 (configuration not stated) | 7.4 mg/kg | 
2 | CC(C)O.Cl.Oc1ccc2c(c1)C1(c3ccccc3)CCN(CC3CC3)C(C2)C1 (racemic) | 33 mg/kg | ED50 (Mus musculus [2]): 107 mg/kg
3 | Oc1ccc2c(c1)C1(c3ccccc3)CCNC(C2)C1 (configuration not stated) |  | Activity (Mus musculus [3]): inactive
4 | Br.CC1C2Cc3ccc(O)cc3C1(c1ccccc1)CCN2CC(=O)c1ccccc1 (configuration not stated) | > 100 mg/kg | 
5 | Oc1ccc2c(c1)C1(c3ccccc3)CCN(CCCCc3ccccc3)C(C2)C1 (racemic) |  | Activity (Mus musculus [3]): inactive; ED50 (Mus musculus [2]): > 100 mg/kg
6 | CCCCCN1CCC2(c3ccccc3)c3cc(O)ccc3CC1C2C (configuration not stated) |  | ED50 (Mus musculus [2]): > 100 mg/kg
7 | CC1C2Cc3ccc(OC(=O)c4ccccc4)cc3C1(c1ccccc1)CCN2C (configuration not stated) | 0.5 mg/kg | 
8 | C[C@@H]1C2Cc3ccc(O)cc3C1(c1ccccc1)CCN2CCC(O)(c1ccccc1)c1ccccc1 (some centres not stated) | > 100 mg/kg | Activity (Mus musculus [3]): inactive
9 | Oc1ccc2c(c1)C1(c3ccccc3)CCNC(C2)C1 (racemic) | > 100 mg/kg | 
10 | CC(C)O.Cl.Oc1ccc2c(c1)C1(c3ccccc3)CCN(CC3CC3)C(C2)C1 (stereo in doubt; 144) |  | ED50 (Mus musculus [1]): >33 mg/kg
11 | COc1ccc2c(c1)C1(c3ccccc3)CCN(CC3CCC3)C(C2)C1.Cl.O (racemic) |  | ED50 (Mus musculus [2]): > 100 mg/kg
12 | CC(C)=CCN1CCC2(c3ccccc3)c3cc(OC(=O)c4c(Cl)cccc4Cl)ccc3CC1C2C (configuration not stated) | > 100 mg/kg | 
13 | CC1C2Cc3ccc(O)cc3C1(c1ccccc1)CCN2CCC(C#N)(c1ccccc1)c1ccccc1 (stereo in doubt; 167) [listing 1 of 2 here] |  | Activity (Mus musculus [3]): inactive
14 | Br.CC1C2Cc3ccc(O)cc3C1(c1ccccc1)CCN2CC1COc2ccccc2O1 (configuration not stated) | 84 mg/kg | ED50 (Mus musculus [2]): > 100 mg/kg
15 | CC1C2Cc3ccc(O)cc3C1(c1ccccc1)CCN2C(=O)C12CC3CC(CC(C3)C1)C2 (configuration not stated) | > 100 mg/kg | 
16 | CC1C2Cc3ccc(O)cc3C1(c1ccccc1)CCN2CCc1cccs1.Cl.O (configuration not stated) | > 100 mg/kg | ED50 (Mus musculus [2]): > 100 mg/kg
17 | C[C@@H]1C2Cc3ccc(O)cc3C1(c1ccccc1)CCN2C (some centres not stated) | 0.5 mg/kg | 
18 | CCCN1CCC2(c3ccccc3)c3cc(O)ccc3CC1C2C.Cl (stereo in doubt; 173) |  | ED50 (Mus musculus [1]): >100 mg/kg
19 | Oc1ccc2c(c1)C1(c3ccccc3)CCN(C/C=C/c3ccccc3)C(C2)C1 (racemic) |  | Activity (Mus musculus [3]): Active
20 | CC1C2Cc3ccc(O)cc3C1(c1ccccc1)CCN2C (configuration not stated) | 4.2 mg/kg | 
21 | CN1CCC2(c3ccccc3)CC1Cc1ccccc12.O=C(O)C(O)C(O)C(=O)O (stereo in doubt; 36) | 5.5 mg/kg | 

Row | SMILES | ED50 (Mus musculus [1]; [4]) | also measured
22 | CC1C2Cc3ccc(O)cc3C1(c1ccccc1)CCN2CCC(c1ccccc1)c1ccccc1 (stereo in doubt; 166) |  | Activity (Mus musculus [3]): inactive
23 | CC(C)=CCN1CCC2(c3ccccc3)c3cc(OS(=O)(=O)c4ccc(C)cc4)ccc3CC1C2C (configuration not stated) | > 100 mg/kg | 
24 | CCCN1CCC2(c3ccccc3)c3cc(O)ccc3CC1C2C.Cl (stereo in doubt; 163) |  | ED50 (Mus musculus [1]): 14 mg/kg; ED50 (Mus musculus [2]): > 100 mg/kg
25 | C=CCN1CCC2(c3ccccc3)CC1Cc1ccc(O)cc12 (stereo in doubt; 143) |  | ED50 (Mus musculus [1]): >80 mg/kg
26 | CN1CCC2(c3ccccc3)CC1Cc1ccc(O)cc12.Cl (stereo in doubt; 42) |  | ED50 (Mus musculus [1]): 5.6 mg/kg
27 | C#CCN1CCC2(c3ccccc3)c3cc(OC)ccc3CC1C2C (configuration not stated) | > 100 mg/kg | 
28 | CCCCCCCCCCN1CCC2(c3ccccc3)c3cc(O)ccc3CC1C2C.Cl (configuration not stated) | 70 mg/kg | Activity (Mus musculus [3]): inactive; ED50 (Mus musculus [2]): > 100 mg/kg
29 | CC1C2Cc3ccc(OC(=O)c4ccc(F)cc4)cc3C1(c1ccccc1)CCN2C (configuration not stated) | 0.7 mg/kg | 
30 | COc1ccc2c(c1)C1(c3ccccc3)CCN(C)C(C2)C1.Cl.O (configuration not stated) | 16 mg/kg | 
31 | CC1C2Cc3ccc(O)cc3C1(c1ccccc1)CCN2CCC(C#N)(c1ccccc1)c1ccccc1 (stereo in doubt; 167) [listing 2 of 2 here] | 110 mg/kg | ED50 (Mus musculus [2]): > 100 mg/kg
32 | CC1C2Cc3ccc(O)cc3C1(c1ccccc1)CCN2C1CCCC1.Cl (configuration not stated) | 120 mg/kg | 
33 | CC(=O)CCN1CCC2(c3ccccc3)c3cc(O)ccc3CC1[C@H]2C.CS(=O)(=O)O (some centres not stated) |  | ED50 (Mus musculus [2]): > 100 mg/kg
34 | CS(=O)(=O)O.c1ccc(CCN2CCC3(c4ccccc4)CC2Cc2ccccc23)cc1 (configuration not stated) | > 100 mg/kg | 
35 | CC1C2Cc3ccc(OC(=O)c4c(Cl)cccc4Cl)cc3C1(c1ccccc1)CCN2C (configuration not stated) | > 100 mg/kg | 
36 | Br.CC1C2Cc3ccc(O)cc3C1(c1ccccc1)CCN2CCC(c1ccccc1)c1ccccc1.O (stereo in doubt; 166) | > 100 mg/kg | 
37 | CN1CCC2(c3ccccc3)CC1Cc1ccc(O)cc12.Cl (stereo in doubt; 43) | 5.5 mg/kg | 
38 | CCOC(=O)N1CCC2(c3ccccc3)CC1Cc1ccc(OC(C)=O)cc12 (racemic) |  | Activity (Mus musculus [3]): inactive; ED50 (Mus musculus [2]): > 100 mg/kg
39 | COc1ccc2c(c1)C1(c3ccccc3)CCN(C)C(C2)C1 (racemic) | 14 mg/kg | 
40 | C=CCN1CCC2(c3ccccc3)c3cc(O)ccc3CC1C2C.CCCO.Cl (configuration not stated) | > 100 mg/kg | 
41 | CC(C)O.CC1C2Cc3ccc(O)cc3C1(c1ccccc1)CCN2CC1CC1.Cl (stereo in doubt; 218) |  | ED50 (Mus musculus [1]): >100 mg/kg
42 | C/C(Cl)=C/CN1CCC2(c3ccccc3)CC1Cc1ccc(O)cc12 (racemic) | > 100 mg/kg | 
